From PubChem BioAssay AID720615 (Broad Institute, 2013)
Results filed as inconclusive are left out. Calls of active or inactive are those of the source. How the calls were made is not given here.

Tests used:
[1] = caspase 3/7 activation in U251 cells, mechanism study for HRAS target identification, cell-based, luminescence, several timepoints, dry powder (AID 720615); conditions: U251 HRAS cells, caspase 3/7 luminescence, apoptosis; at 35 µM (top of the series)
[2] = test system: U251 HRAS cells, caspase 3/7 luminescence, apoptosis; test: as above

| Structure (SMILES) | caspase 3/7 activation [1] | AC40 [2] [µM] | AC40 ([2]; measured here: timepoint 1 caspase activation) [µM] | AC40 ([2]; measured here: timepoint 2 caspase activation) [µM] | AC40 ([2]; measured here: timepoint 3 caspase activation) [µM] |
| --- | --- | --- | --- | --- | --- |
| CCC(=O)N(c1ccc(OC)c(Cl)c1)C(C(=O)NCCc1ccccc1)c1cccs1 (stereo not given) | 4.74% (inactive) | – | – | – | – |
| COc1ccc(N(C(=O)CCl)C(C(=O)NCCc2ccccc2)c2cccs2)cc1Cl (stereo not given) | – | 5.7 | 14.7 | 1.45 | 0.948 |
